Laboratory results as given in ChEMBL document CHEMBL1132687, “Synthesis and enantiopharmacology of new AMPA-kainate receptor agonists” (J Med Chem, 1999).
Calls of active or inactive are those of the source. The rule behind the calls is not given here.

Columns and labels:
[1] = The dissociation constant at ammonium group in water at 20 degree Centigrade. (evaluated by Uyeno., Y et. al.); format: ADME; conditions: read-out: pKa3
[2] = The dissociation constant at alpha-carboxyl group in water at 20 degree Centigrade. (evaluated by Uyeno., Y et. al.); format: ADME; conditions: read-out: pKa1
[3] = The dissociation constant at omega-carboxyl or hydroxyl group iin water at 20 degree Centigrade. (evaluated by Uyeno., Y et. al.); format: ADME; conditions: read-out: pKa2
Rattus norvegicus [4] = species on record: Rattus norvegicus; experiment: Electropharmacology on rat cortical slice preparation for EAA-evoked depolarizations; Depolarization evoked by the compound is fully antagonised by 5 uM of NBQX.; format: functional
[5] = target: Glutamate receptor ionotropic, AMPA (Rattus norvegicus, UniProt P19490+P19491+P19492+P19493)
Description: Binding affinity against Ionotropic glutamate receptor AMPA using [3H]AMPA as radioligand.

[6] = target: Glutamate receptor ionotropic, kainate; experiment: Binding affinity against Ionotropic glutamate receptor kainate using [3H]KAIN as radioligand.; format: protein-complex assay
Rattus norvegicus [7] = species on record: Rattus norvegicus; experiment: Electropharmacology on rat cortical slice preparation for EAA-evoked depolarizations; Depolarization evoked by the compound is antagonised by 10 uM of CPP.; format: functional
physchem [8] = conditions: water
Description: The dissociation constant at omega-carboxyl or hydroxyl group in water at 20 degree Centigrade.

physchem [9] = conditions: water; remark: listed apart in the source
[10] = The dissociation constant at ammonium group in water at 20 degree Centigrade; format: ADME; conditions: read-out: pKa3
Rattus norvegicus [11] = species on record: Rattus norvegicus; experiment: Electropharmacology on rat cortical slice preparation for EAA-evoked depolarizations; Depolarization evoked by the compound is partially antagonised by 5 uM of NBQX and fully antagonised by 20 uM of NBQX.; format: functional
CHO = experiment: Affinity at Metabotropic glutamate receptor (Glu1-alpha,Glu2,Glu4a) expressed in CHO cells; Not significant activity up to 1 mM concentration; format: cell-based
physchem [12] = conditions: water; remark: listed apart in the source
Glutamate NMDA receptor = experiment: Binding affinity against N-methyl-D-aspartate glutamate receptor using [3H]-CPP as radioligand.; format: protein-complex assay
Rattus norvegicus [13] = species on record: Rattus norvegicus; experiment: Electropharmacology on rat cortical slice preparation for EAA-evoked depolarizations;Depolarization evoked by the compound is partially antagonised by 5 uM of NBQX and fully antagonised by 20 uM of NBQX.; format: functional
Rattus norvegicus [14] = species on record: Rattus norvegicus; experiment: Electropharmacology on rat cortical slice preparation for EAA-evoked depolarizations;; format: functional
Rattus norvegicus [15] = species on record: Rattus norvegicus; experiment: Electropharmacology on rat cortical slice preparation for EAA-evoked depolarizations;Depolarization evoked by the compound is fully antagonised by 5 uM of NBQX.; format: functional
Rattus norvegicus [16] = species on record: Rattus norvegicus; experiment: Electropharmacology on rat cortical slice preparation for EAA-evoked depolarizations; Depolarization evoked by the compound is not antagonised by 5 uM of NBQX but fully antagonised by 20 uM of NBQX.; format: functional

For `N[C@@H](CCC(=O)O)C(=O)O` [GLUTAMIC ACID], the pKa [1] was 9.54, the pKa [2] was 2.39 and the pKa [3] was 4.21.

For `O=C(O)C1=NO[C@H]2[C@@H]1CN[C@@H]2C(=O)O` (stereo in doubt; (+)-7) [listing 1 of 2 here], the EC50 (Rattus norvegicus [4]) was 251 µM, the IC50 [5] was 11.2 µM and the IC50 [6] was 67 µM.

For `CN[C@H](CC(=O)O)C(=O)O` [N-METHYL-D-ASPARTIC ACID (NMDA)], the EC50 (Rattus norvegicus [7]) was 11 µM.

In the case of `O=C(O)C1=NO[C@H]2CN[C@H](C(=O)O)[C@@H]12` (racemic) [listing 1 of 2 here], the pKa (physchem [8]) is reported as 2.15, the pKa (physchem [9]) is reported as < 2 and the pKa [10] is reported as 7.4. The EC50 (Rattus norvegicus [11]) was 5.4 µM.

For `O=C(O)C1=NO[C@H]2[C@@H]1CN[C@@H]2C(=O)O` (racemic) [listing 1 of 2 here], the Activity (CHO) was “inactive”.

With `O=C(O)C1=NO[C@H]2CN[C@H](C(=O)O)[C@@H]12` (racemic) [listing 2 of 2 here] the Activity (CHO) was “inactive”.

Compound `O=C1NO[C@H]2[C@@H]1CN[C@@H]2C(=O)O` (racemic) has an EC50 (Rattus norvegicus [7]) of 1000 µM, a pKa (physchem [12]) of 8.3 and a pKa (physchem [8]) of 5.1. For the same compound, the pKa (physchem [9]) was 2, the Activity (CHO) was “inactive” and the IC50 (Glutamate NMDA receptor) was > 100 µM. The IC50 [5] was 34.9 µM and the IC50 [6] was 45.3 µM.

In the case of `O=C(O)C1=NO[C@H]2[C@@H]1CN[C@@H]2C(=O)O` (stereo in doubt; (+)-7) [listing 2 of 2 here], the Activity (CHO) is reported as “inactive”.

For `O=C(O)C1=NO[C@H]2[C@@H]1CN[C@@H]2C(=O)O` (stereo in doubt; (-)-7) [listing 1 of 2 here], the Activity (CHO) was “inactive”.

In the case of `O=C(O)C1=NO[C@H]2CN[C@H](C(=O)O)[C@@H]12` (stereo in doubt; (-)-6) [listing 1 of 2 here], the EC50 (Rattus norvegicus [13]) is reported as 3.5 µM, the IC50 [5] is reported as 0.54 µM and the IC50 [6] is reported as 0.23 µM.

In the case of `O=C(O)C1=NO[C@H]2[C@@H]1CN[C@@H]2C(=O)O` (stereo in doubt; (-)-7) [listing 2 of 2 here], the IC50 (Glutamate NMDA receptor) is reported as > 100 µM, the IC50 [5] is reported as > 100 µM and the EC50 (Rattus norvegicus [14]) is reported as > 1000 µM. The IC50 [6] was > 100 µM.

In the case of `O=C(O)C1=NO[C@H]2CN[C@H](C(=O)O)[C@@H]12` (stereo in doubt; (+)-6) [listing 1 of 2 here], the Activity (CHO) is reported as “inactive”.

With `O=C(O)C1=NO[C@H]2[C@@H]1CN[C@@H]2C(=O)O` (racemic) [listing 2 of 2 here] the pKa (physchem [12]) was 7.3, the pKa (physchem [8]) was 2.6 and the pKa (physchem [9]) was < 2. For the same compound, the EC50 (Rattus norvegicus [15]) was 284 µM.

For `O=C(O)C1=NO[C@H]2CN[C@H](C(=O)O)[C@@H]12` (stereo in doubt; (+)-6) [listing 2 of 2 here], the IC50 [5] was > 100 µM, the EC50 (Rattus norvegicus [14]) was > 1000 µM and the IC50 [6] was > 100 µM.

For `O=C1NO[C@H]2CN[C@H](C(=O)O)[C@@H]12` (racemic), the EC50 (Rattus norvegicus [7]) was 1000 µM, the Activity (CHO) was “inactive” and the IC50 (Glutamate NMDA receptor) was > 100 µM. It also gave an IC50 [5] of 42.6 µM and an IC50 [6] of 7.9 µM.

With `C=C(C)[C@H]1CN[C@H](C(=O)O)[C@H]1CC(=O)O` [KAINIC ACID] the EC50 (Rattus norvegicus [16]) was 25 µM.

In the case of `O=C(O)C1=NO[C@H]2CN[C@H](C(=O)O)[C@@H]12` (stereo in doubt; (-)-6) [listing 2 of 2 here], the Activity (CHO) is reported as “inactive”.
